Measurements taken from patent publication US8969088B2, “Substrate mimicking intercellular lipids in stratum corneum and method of evaluating skin roughening using the same” (Shiseido Company, Ltd., priority 2008, dated 2015).

Test: Myelin figure formation on exposing the lipids-mimicking substrate to surfactant (microscopy)
Settings: aqueous solution 5.0 mg/cm^3, 25° C., 6 hours, lipid membrane 50 μm
Description: Multiple substrates mimicking intercellular lipids in stratum corneum, each having a lipid membrane controlled to a thickness of 50 μm were exposed to an aqueous solution (5.0 mg/cm^3) of SDS (99.0%) (Nacalai Tesque, Inc., Kyoto, Japan) at a temperature of 25° C. for 6 hours. Each exposed substrate was rinsed with a small amount of water and dried, and used for the following evaluation test.
Upon examination of surfactants other than SDS, a myelin figure was formed with some and not formed with others. For each of the examined surfactants, the shortest distance from the edge of the substrate to the tip of the myelin figure (hereunder referred to as “myelin figure formation distance”) was measured.

In the case of `CCCCCCCCCCCCOS(=O)(=O)[O-].[Na+]` [SDS], the myelin figure formation is reported as “formation of a myelin figure within a constant range”.
